Source: patent publication US20200352912A1, “ANTIMICROBIAL COMPOSITIONS AND METHODS OF USING THE SAME” (The Board Of Supervisors Of Louisiana State University And …, priority 2018, published 2020)

How the values were obtained:
S. aureus NRS383 = assay: mouse MRSA peritonitis/sepsis model; assay type: in vivo, mice; details: for survival by day 2 post-inoculation: 10 mg/kg i.p.
Description: Mice were infected intraperitoneally with 0.2 ml of the indicated inoculum of S. aureus NRS383 in 3% hog gastric mucin/PBS. One group of mice/inoculum received either the vehicle or L-161, 982 at a dose of 10 mg/kg by i.p. injection as indicated in Materials and Methods. (A) Mortality was assessed using Kaplan Meier test (*P<0.05; **P<0.01; ***P<0.001; ns—not significant; n=15/group) compared to control groups. (B) Microbial burden in peritoneal lavage fluid and spleen was assessed between untreated (control) and treated (L-161, 982) groups 24 and 48 h post-inoculation (n=6 to 8/group). Values are plotted as the median CFU and compared using the Mann-Whitney U test (**P<0.01; ***P<0.001). Data shown are representative of three replicate experiments.
(§1) The mouse peritonitis/intra-abdominal model was performed as previously described (8). In brief, for MRSA peritonitis, mice were injected intraperitoneally (i.p.) with 4×10^6 CFU or 5×10^6 CFU or 2×10^7 CFU of S. aureus in 0.2 ml of PBS containing 3% hog gastric mucin type III (Sigma Aldrich). Mice injected i.p. with 0.2 ml of mucin/PBS served as a negative infection control. For the intra-abdominal infection with C. albicans and S. aureus, mice were injected i.p. with 7×10^6 CFU of C. albicans and 8×10^7 CFU of S. aureus (8.7×10^7 CFU total) in 0.2 ml of PBS. After inoculation, mice were observed over 10 days for signs of morbidity (hunched posture, inactivity, lethargy, and ruffled fur) and mortality. […] In the MRSA peritonitis experiments, mice were sacrificed at 24 or 48 h post-inoculation to assess microbial burden. Peritoneal cavities were lavaged by injection of 2 ml of sterile PBS followed by gentle massaging of the peritoneal cavity. Peritoneal lavage fluid then was removed using a pipette inserted into a small incision in the abdominal cavity. Spleens were removed, weighed, and mechanically homogenized prior to CFU analysis. Microbial burdens in the peritoneal lavage fluid and spleen were enumerated as described above.
(§2) Each inhibitor was prepared fresh as a concentrated stock (20-25 mg/ml) in DMSO and diluted to a working concentration of […] in sterile PBS (final DMSO concentration, 2.3%). A sham treatment containing only 2.3% DMSO in PBS was also prepared. For the MRSA peritonitis study, the EP4 receptor antagonist was administered 2 h after S. aureus inoculation and once daily thereafter until day 4 post inoculation. For the IAI co-infection study, COX inhibitor or vehicle control was administered 4 h prior to and 4 and 8 h after inoculation with C. albicans and S. aureus while the EP receptor antagonists were administered daily starting 1 day prior to and 5 days after infection. All other procedures were performed as described above. Control groups received the vehicle at the same dose interval.
L-161, 982 protects against mono- and poly-microbial infections with MRSA. We next evaluated the efficacy of L-161, 982 in vivo using an established mouse peritonitis/sepsis model of infection. Mice were inoculated with three varying lethal inocula of S. aureus and treated with L-161, 982 (10 mg/kg) intraperitoneally (i.p.) 2 h post-inoculation and once daily afterwards through day 4. Control group received the vehicle at the same dose interval.

[1] = test system: C. albicans and S. aureus; assay: mouse C. albicans-S. aureus polymicrobial intra-abdominal infection; assay type: in vivo, mice; details: 10 mg/kg
Description: Effect of inhibition of EP4 receptor signaling on survival. Mice received either vehicle or EP4 receptor antagonist at a dose of 10 mg/kg by i.p. injection as indicated in Materials and Methods. Mortality was assessed using Kaplan Meier test (***P<0.001; n=20/group) compared to control groups. Data shown are representative of three replicate experiments.
as §1, §2
In a final set of experiments, we evaluated the ability of L-161, 982 to reduce lethality in co-infected mice. Mice co-inoculated with the standard 7×106 C. albicans CFU and 8×107 S. aureus CFU (8.7×10^7 CFU total) were treated with L-161, 982 (10 mg/kg) 2 h post infection and once daily afterwards until day 5. […]

CCCCc1nn(-c2ccccc2C(F)(F)F)c(=O)n1Cc1ccc(-c2ccccc2S(=O)(=O)NC(=O)c2sccc2C)cc1 [L-161, 982, N-[[4′-[[3-Butyl-1,5-dihydro-5-oxo-1-[2-(trifluoromethyl)phenyl]-4H-1,2,4-triazol-4-yl]methyl][1,1′-biphenyl]-2-yl]sulfonyl]-3-methyl-2-thiophenecarboxamide]
reduction of S. aureus in peritoneal cavity and spleen (S. aureus NRS383; 24 h post inoculation, vs untreated): 3 logs | additional reduction of S. aureus in peritoneal cavity and spleen (S. aureus NRS383; 48 h post infection, after a second dose): 3 log | mortality by day 2 at high inoculum (S. aureus NRS383; inoculum 2×10^7 CFU): could not be reversed | survival by day 2 post-inoculation (S. aureus NRS383; inoculum 4×10^6 CFU, control 40): 85% | survival by day 2 post-inoculation (S. aureus NRS383; inoculum 5×10^6 CFU, control 25): 55% | survival through day 10 (S. aureus NRS383; intermediate and lowest inocula, continued dosing, control 20% survival): sustained survival | survival rate raised by (S. aureus NRS383; one treatment, depending on infectious dose): at least 50% | survival enhanced by [1]: 40% | survival ([1]; vehicle control 10): 50%
